Laboratory results as given in patent US20250188110A1, “SPECIFIC SMALL MOLECULE INHIBITORS THAT BLOCK KMT9 METHYLTRANSFERASE ACTIVITY AND FUNCTION” (ALBERT-LUDWIGS-UNIVERSITÄT FREIBURG, priority 2021, published 2025).

Legend:
KMT9 [1] = target: T1, KMT9 (Homo sapiens, UniProt Q9Y5N5); test: Microscale thermophoresis (MST) KMT9 binding; details: microscale thermophoresis, His-tag labelled KMT9 (20 nM); read-out: MST
T1 sequence (Q9Y5N5 1-214): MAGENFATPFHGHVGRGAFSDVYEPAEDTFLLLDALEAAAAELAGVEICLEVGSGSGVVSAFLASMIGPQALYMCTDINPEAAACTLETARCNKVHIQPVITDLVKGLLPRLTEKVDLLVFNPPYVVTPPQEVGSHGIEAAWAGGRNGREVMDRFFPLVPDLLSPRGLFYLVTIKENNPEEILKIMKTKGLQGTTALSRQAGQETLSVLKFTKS
T1 sequence (Q9UI30 1-120 isoform Q9UI30-2 partner): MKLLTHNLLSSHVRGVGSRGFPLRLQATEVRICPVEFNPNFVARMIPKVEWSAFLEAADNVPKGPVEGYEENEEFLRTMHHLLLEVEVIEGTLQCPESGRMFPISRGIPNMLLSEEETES
Method in brief: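 His-tagged KMT9 (20 nM), RED-Tris-NTA labelled, titrated with varying compound concentrations in 25 mM HEPES pH 7.5, 100 mM NaCl, 1 mM DTT, 0.05% Tween. MST at 40% MST and 100% LED power, Nano-RED excitation; Kd binned A ≤10 nM, B 10–100, C 100–1000, D >1000 nM.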

KMT9 [2] = target: T1, KMT9; test: KMT9 thermal shift assay (SyproOrange); type: binding; details: ΔTm; 500 µM compound, 2 μM KMT9, 5X SO; read-out: Thermal shift
Method in brief: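 Recombinant KMT9 was incubated with compound and SyproOrange at 25° C in 50 mM BTP pH 8.5, 1 mM MgCl2, 1 mM DTT. It was then heated from 20° C to 95° C at 1° C per 15 s with fluorescence read each step. Tm came from a Boltzmann sigmoidal fit; ΔTm relative to DMSO control, binned in 5 K ranges.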

KMT9 [3] = target: T1, KMT9; test: KMT9 methyltransferase inhibition assay, 3H-SAM scintillation (entries 1-154); type: biochemical; details: entries 1-154: 3H-SAM assay, 25 nM KMT9, 5 μM ETF1
Method in brief: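 Final 25 nM KMT9, 5 μM ETF1 (residues 140-275), 0.3 μM 3H-SAM plus 0.7 μM SAM in pH 8.5 BTP buffer, 2 h at 30° C. TCA-quenched, filter-washed, methylation counted by scintillation; % inhibition vs DMSO and no-enzyme controls, IC50 from four-parameter fit.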

Structure (SMILES)	Kd (KMT9 [1])	ΔTm at 500 µM (KMT9 [2])	IC50 (KMT9 [3])
CCNC(=O)NCCCNC(=O)[C@H]1O[C@@H](n2cnc3c(N)ncnc32)[C@H](O)[C@@H]1O [307 (206), (2S,3S,4R,5R)-5-(6-amino-9H-purin-9-yl)-N-(3-(3-ethylureido)propyl)-3,4-dihydroxytetrahydrofuran-2-carboxamide]	> 1000 nM	≤ 10 °C	> 10000 nM
CNc1ncnc2c1ccn2[C@@H]1C[C@H](CN2CCC[C@@]23CCCNC3)[C@@H](O)[C@H]1O (single isomer, unassigned) [450 (322)]	> 1000 nM	≤ 10 °C	> 10000 nM
Nc1ncnc2c1c(-c1ncn[nH]1)cn2[C@@H]1C[C@H](CNCCCNCCc2ccccc2)[C@@H](O)[C@H]1O [475 (349), (1R,2S,3R,5R)-3-(4-amino-5-(1H-1,2,4-triazol-5-yl)-7H-pyrrolo[2,3-d]pyrimidin-7-yl)-5-(((3-(phenethylamino)propyl)amino)methyl) cyclopentane-1,2-diol]	10 to 100 nM	15 to 20 °C	100 to 1000 nM
CS(=O)(=O)n1ccc(-c2cn([C@@H]3C[C@H](CNCCCNCCc4ccccc4)[C@@H](O)[C@H]3O)c3ncnc(N)c23)n1 [Compound 600, (1R,2S,3R,5R)-3-(4-Amino-5-(1-(methylsulfonyl)-1H-pyrazol-3-yl)-7H-pyrrolo[2,3-d]pyrimidin-7-yl)-5-(((3-(phenethylamino)propyl)amino)methyl)cyclopentane-1,2-diol]	≤ 10 nM	15 to 20 °C	< 100 nM
Nc1ncnc2c1c(-c1nccs1)cn2[C@@H]1C[C@H](CNCCCNCCc2ccc(F)cc2)[C@@H](O)[C@H]1O [Compound 602, (1R,2S,3R,5R)-3-[4-Amino-5-(1,3-thiazol-2-yl)pyrrolo[2,3-d]pyrimidin-7-yl]-5-{[(3-{[2-(4-fluorophenyl)ethyl]amino}propyl)amino]methyl}cyclopentane-1,2-diol]	10 to 100 nM	15 to 20 °C	100 to 1000 nM
Nc1ncnc2c1c(-c1nccs1)cn2[C@@H]1C[C@H](CN(CCCNCCc2ccc(F)cc2)c2cn[nH]c2)[C@@H](O)[C@H]1O [Compound 599, (1R,2S,3R,5R)-3-[4-Amino-5-(1,3-thiazol-2-yl)pyrrolo[2,3-d]pyrimidin-7-yl]-5-{[(3-{[2-(4-fluorophenyl)ethyl]amino}propyl)(1H-pyrazol-4-yl)amino]methyl}cyclopentane-1,2-diol]	≤ 10 nM	15 to 20 °C	< 100 nM
O[C@@H]1[C@H](O)[C@@H](C2CCNCC2)C[C@H]1n1cc2c3c(ncnc31)NCCC2 [Compound 490, (1S,2R,3R,5R)-3-(piperidin-4-yl)-5-(6,7,8,9-tetrahydro-2H-2,3,5,6-tetraazabenzo[cd]azulen-2-yl)cyclopentane-1,2-diol]	100 to 1000 nM	10 to 15 °C	1000 to 10000 nM
Cn1cc(-c2cn([C@@H]3C[C@H](CNCCCNCCc4ccccc4)[C@@H](O)[C@H]3O)c3ncnc(N)c23)cn1 [478 (352), (1R,2S,3R,5R)-3-(4-Amino-5-(1-methyl-1H-pyrazol-4-yl)-7H-pyrrolo[2,3-d]pyrimidin-7-yl)-5-(((3-(phenethylamino)propyl)amino)methyl) cyclopentane-1,2-diol]	10 to 100 nM	15 to 20 °C	1000 to 10000 nM
C=Cc1cn([C@@H]2C[C@H](CN3CC(CNCCc4ccc(F)cc4)C3)[C@@H](O)[C@H]2O)c2ncnc(N)c12 [485 (359), (1R,2S,3R,5R)-3-(4-Amino-5-vinyl-7H-pyrrolo[2,3-d]pyrimidin-7-yl)-5-((3-(((4-fluorophenethyl)amino)methyl)azetidin-1-yl)methyl) cyclopentane-1,2-diol]	10 to 100 nM	15 to 20 °C	1000 to 10000 nM
Nc1ncnc2c1c(Br)cn2[C@@H]1C[C@H](CNCCCNCCc2ccccc2F)[C@@H](O)[C@H]1O [338 (242), (1R,2S,3R,5R)-3-(4-amino-5-bromo-7H-pyrrolo[2,3-d]pyrimidin-7-yl)-5-(((3-((2-fluorophenethyl)amino)propyl)amino)methyl) cyclopentane-1,2-diol]	10 to 100 nM	15 to 20 °C	100 to 1000 nM
CNc1ncnc2c1ccn2[C@@H]1C[C@H](CN(CCCNCCc2ccc3ccccc3c2)CC(F)(F)F)[C@@H](O)[C@H]1O [377 (281), (1R,2S,3R,5R)-3-(4-(methylamino)-7H-pyrrolo[2,3-d]pyrimidin-7-yl)-5-(((3-((2-(naphthalen-2-yl)ethyl)amino)propyl)(2,2,2-trifluoroethyl)amino)methyl) cyclopentane-1,2-diol]	> 1000 nM	≤ 10 °C	> 10000 nM
CCC(=O)NCCNC[C@H]1O[C@@H](n2cnc3c(N)ncnc32)[C@H](O)[C@@H]1O [315 (216), N-(2-((((2R,3S,4R,5R)-5-(6-amino-9H-purin-9-yl)-3,4-dihydroxytetrahydrofuran-2-yl)methyl)amino)ethyl)propionamide]	> 1000 nM	≤ 10 °C	> 10000 nM
CNc1ncnc2c1ccn2[C@@H]1C[C@H](Cn2ccnc2CCCNCCc2cccc(Oc3ccccc3)c2)[C@@H](O)[C@H]1O [326 (229), (1R,2S,3R,5R)-3-(4-(methylamino)-7H-pyrrolo[2,3-d]pyrimidin-7-yl)-5-((2-(3-((3-phenoxyphenethyl)amino)propyl)-1H-imidazol-1-yl)methyl) cyclopentane-1,2-diol]	> 1000 nM	≤ 10 °C	> 10000 nM
CNc1ncnc2c1ccn2[C@@H]1C[C@H](C(=O)NCC2CCCCN2)[C@@H](O)[C@H]1O (stereo partly drawn) [350 (254), (1S,2R,3S,4R)-2,3-dihydroxy-4-(4-(methylamino)-7H-pyrrolo[2,3-d]pyrimidin-7-yl)-N-(piperidin-2-ylmethyl) cyclopentane-1-carboxamide]	> 1000 nM	≤ 10 °C	> 10000 nM

The next lines start with the values.

Kd (KMT9 [1])	ΔTm at 500 µM (KMT9 [2])	IC50 (KMT9 [3])	Structure (SMILES)
> 1000 nM	≤ 10 °C	> 10000 nM	CNc1ncnc2c1ccn2[C@@H]1C[C@H](/C=C/CCNCCc2ccccc2)[C@@H](O)[C@H]1O [422 (293), (1R,2S,3R,5R)-3-(4-(methylamino)-7H-pyrrolo[2,3-d]pyrimidin-7-yl)-5-((E)-4-(phenethylamino)but-1-en-1-yl) cyclopentane-1,2-diol]
> 1000 nM	≤ 10 °C	> 10000 nM	CNc1ncnc2c1ccn2[C@@H]1C[C@H](CNCC(F)(F)CNCCc2ccc3ccccc3c2)[C@@H](O)[C@H]1O [357 (261), (1S,2R,3R,5R)-3-(((2,2-difluoro-3-((2-(naphthalen-2-yl)ethyl)amino)propyl)amino)methyl)-5-(4-(methylamino)-7H-pyrrolo[2,3-a]pyrimidin-7-yl) cyclopentane-1,2-diol]
> 1000 nM	≤ 10 °C	> 10000 nM	CNc1ncnc2c1ccn2[C@@H]1C[C@H](C[S+]([O-])CCNCCc2ccccc2)[C@@H](O)[C@H]1O (stereo partly drawn) [432 (304), (1R,2S,3R,5S)-3-(4-(Methylamino)-7H-pyrrolo[2,3-d]pyrimidin-7-yl)-5-(((2-(phenethylamino)ethyl)sulfinyl)methyl) cyclopentane-1,2-diol]
10 to 100 nM	15 to 20 °C	1000 to 10000 nM	CNc1ncnc2c1ccn2[C@@H]1C[C@H](C(=O)NCCCNCCc2cccc(Oc3ccccc3)c2)[C@@H](O)[C@H]1O [354 (258), (1S,2R,3S,4R)-2,3-dihydroxy-4-(4-(methylamino)-7H-pyrrolo[2,3-d]pyrimidin-7-yl)-N-(3-((3-phenoxyphenethyl)amino)propyl) cyclopentane-1-carboxamide]
100 to 1000 nM	≤ 10 °C	> 10000 nM	CNc1ncnc2c1ccn2[C@@H]1C[C@H](CN(CCCNCCc2cccc(Oc3ccccc3)c2)CC2CC2)[C@@H](O)[C@H]1O [360 (270)]
100 to 1000 nM	10 to 15 °C	> 10000 nM	CNc1ncnc2c1ccn2[C@@H]1C[C@H](C(=O)NCCNCCc2cccc(Oc3ccccc3)c2)[C@@H](O)[C@H]1O [356 (260), (1S,2R,3S,4R)-2,3-dihydroxy-4-(4-(methylamino)-7H-pyrrolo[2,3-d]pyrimidin-7-yl)-N-(2-((3-phenoxyphenethyl)amino)ethyl) cyclopentane-1-carboxamide]
> 1000 nM	≤ 10 °C	> 10000 nM	CNc1ncnc2c1ccn2[C@@H]1C[C@H](CN(CCCNCCc2ccccc2)c2ccccc2)[C@@H](O)[C@H]1O [440 (312), (1R,2S,3R,5R)-3-(4-(Methylamino)-7H-pyrrolo[2,3-d]pyrimidin-7-yl)-5-(((3-(phenethylamino)propyl)(phenyl)amino)methyl)cyclopentane-12-diol]
